Each structure is given as a SMILES string. Several values for one entry are separate records, joined by “and”; a condition that tells them apart may be missing. Equal entries are not always repeated.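 Cultured in 96-well plates, cells were exposed to test compound for 48 hours across five concentrations. GI50 = concentration required for 50% inhibition of growth. At the TGI there is no net growth.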 Some results are limits rather than exact numbers.

Experiment in all cases: growth of human tumour cells (NCI), 48 h
Experiment [1] concerns TK-10 renal.
Experiment [2] relates to K-562 leukemia.
Experiment [3] has as its system 786-0 renal.
Experiment [4] has as its system A549 NSCLC.
For experiment [5], the system named is UACC-257 melanoma.
Experiment [6] relates to OVCAR-4 ovarian.
For experiment [7], the system named is HS 578T breast.
For experiment [8], the system named is OVCAR-8 ovarian.
The subject of experiment [9] is SNB-19 CNS.
Experiment [10] relates to NCI-H226 lung.

Regarding `Cc1cc(Nc2nc(N[C@@H](C)c3ncc(F)cn3)ncc2Cl)n[nH]1`, the GI50 is 30 µM in experiment [1]; 32.2 µM in [2]; 23.6 µM in experiment [3]; 29.5 µM in experiment [4]; 33.2 µM in experiment [5]; 23.2 µM in experiment [6]. Further, the GI50 in [7] is 15.9 µM; in experiment [8] it was 30.5 µM; in [9] it was 51.7 µM; in experiment [10], 1.14 µM. Moreover, the TGI in experiment [1], in experiment [2], in experiment [3], in experiment [4], in experiment [5] and in experiment [6] was greater than 100 µM throughout. For the same compound, the TGI in experiment [7] is greater than 71.8 µM; in experiment [8] it was greater than 100 µM; in [9] it was greater than 100 µM; in experiment [10] it was 54.8 µM.

For `Cn1cc(-c2cnn3c(N)c(Br)c(C4CCCNC4)nc23)cn1` (configuration not stated), the GI50 in experiment [1] was 3.69 µM; in experiment [2] it was 3.85 µM; in experiment [3], 1.62 µM; in experiment [4], 17.3 µM; in experiment [5], 17.8 µM; in experiment [6] it was 14.6 µM. Also, the GI50 was 4 µM in [7], 5.87 µM in [8], 18.4 µM in experiment [9] and 13.9 µM in experiment [10]. In addition, the TGI in [1] is greater than 83 µM; in [2], greater than 100 µM; in [3], 60.6 µM; in experiment [4], greater than 100 µM; in experiment [5], 60.6 µM; in experiment [6], 96.1 µM. The TGI in experiment [7] was greater than 72.3 µM; in experiment [8] it was greater than 100 µM; in experiment [9], greater than 100 µM; in [10], greater than 96 µM.

Take `C/C=C1/CC(C)C(C)(O)C(=O)OCC2C(O)CN3CCC(OC1=O)C23` (configuration not stated): the TGI in experiment [1], in experiment [2], in [3], in experiment [4], in experiment [5] and in [6] was greater than 100 µM throughout. For the same compound, the TGI in experiment [7], in [8], in [9] and in experiment [10] was greater than 100 µM each time.

In the case of `CCCCCC/C=C\CCCCCCCCCC1=C(CN2CCN(C)CC2)C(=O)C=C(OC)C1=O`, the TGI in [1] was determined as 9.4 µM; in experiment [2] it was 6.32 µM; in experiment [3], 2.9 µM; in experiment [4], 28.6 µM; in experiment [5], 28.6 µM; in experiment [6], 3.8 µM. Moreover, the TGI amounted to 24.5 µM in experiment [7], 17 µM in experiment [8], 24.1 µM in experiment [9] and 30 µM in [10].

Turning to `CC(=O)C1=C(O)C=C2Oc3c(C(=O)/C=C/c4cc(Cl)cc(Cl)c4)c(O)c(C)c(O)c3[C@]2(C)C1=O`, the GI50 was 0.446 µM in experiment [1]; 0.497 µM in experiment [2]; 0.534 µM in [3]; 0.566 µM in [4]; 0.535 µM in experiment [5]; 0.565 µM in experiment [6]. Further, the GI50 is 0.641 µM in experiment [7], 0.496 µM in [8], 0.582 µM in experiment [9] and 1.21 µM in experiment [10]. Besides, the TGI in [1] is 1.68 µM; in [2], 15 µM; in [3], 2.32 µM; in experiment [4] it was 2.98 µM; in experiment [5], 2.5 µM; in [6], 7.17 µM. In addition, the TGI in experiment [7] was 3.89 µM; in [8], 2.26 µM; in experiment [9], 3.06 µM; in experiment [10] it was 5.49 µM.

Take `CCN(Cc1cccc(Cl)c1)c1ccc(CO)c(Cl)c1`: the GI50 in [1] was 0.0588 µM; in experiment [2] it was 1.65 µM; in [3], 5.96 µM; in [4], 2.47 µM; in experiment [5] it was 0.134 µM; in [6], 0.505 µM. For the same compound, the GI50 was 13.6 µM in experiment [7], 10.5 µM in [8], 13.8 µM in [9] and 0.0905 µM in experiment [10]. The TGI was 0.321 µM in experiment [1]; greater than 50 µM in experiment [2]; 20.9 µM in [3]; 17 µM in [4]; 0.404 µM in [5]; 9.87 µM in experiment [6]. Further, the TGI in experiment [7] was determined as 37.5 µM; in experiment [8], 23.3 µM; in [9], 28.6 µM; in [10], 0.236 µM.

On to `C#CCN(c1ccc(C(=O)N[C@@H](CCC(=O)N[C@H](CCC(=O)O)C(=O)O)C(=O)O)cc1)C1CCc2cc3nc(CO)[nH]c(=O)c3cc21` (some centres not stated), for which the GI50 in experiment [1] is greater than 100 µM; in experiment [2], greater than 100 µM; in [3], 4.96 µM; in experiment [4] it was 5.41 µM; in experiment [5], greater than 100 µM; in experiment [6], greater than 100 µM. Further, the GI50 was greater than 100 µM in experiment [7], 5.81 µM in experiment [8], greater than 73.5 µM in [9] and greater than 100 µM in [10]. The TGI in [1], in experiment [2], in [3], in [4], in experiment [5] and in experiment [6] was greater than 100 µM throughout. In addition, the TGI in experiment [7], in [8], in experiment [9] and in experiment [10] was greater than 100 µM each time.

In the case of `O=[N+]([O-])c1cc([N+](=O)[O-])c(Nn2c3ccccc3c3ccccc32)c([N+](=O)[O-])c1`, the GI50 in [1] was 0.315 µM; in [2] it was 0.297 µM; in experiment [3], 0.324 µM; in experiment [4], 0.334 µM; in [5] it was 0.312 µM; in [6], 0.342 µM. The GI50 in [7] is 0.366 µM; in experiment [8] it was 0.371 µM; in experiment [9] it was 0.376 µM; in experiment [10] it was 0.357 µM. Moreover, the TGI in experiment [1] is 11 µM and > 100 µM; in experiment [2], greater than 100 µM; in experiment [3], 13.1 µM and 15.9 µM; in experiment [4], 14.3 µM and > 100 µM; in experiment [5], 1.63 µM; in [6] it was greater than 100 µM. Further, the TGI in experiment [9] was 54 µM and > 100 µM; in experiment [10], 7.5 µM.

On to `O=C(c1ccc(Cl)cc1)C(O)c1ccc(Cl)cc1` (configuration not stated), for which the TGI in [1], in [2], in experiment [3], in experiment [4], in [5] and in [6] was greater than 100 µM each time. Also, the TGI in experiment [7], in experiment [8], in [9] and in experiment [10] was greater than 100 µM each time.

Turning to `CCNC(=O)Oc1ccc(/C(=C(/C)Cc2ccc(OC)cc2)c2ccc(OCCN(CC)CC)cc2)cc1`, the GI50 in [1] was 2.03 µM; in experiment [2], 2 µM; in [3], 1.39 µM; in experiment [4] it was 1.87 µM; in [5], 1.79 µM; in experiment [6] it was 2.31 µM. Moreover, the GI50 in experiment [7] is 2.18 µM; in [8], 1.8 µM; in experiment [9], 2.57 µM; in experiment [10] it was 2.99 µM. Moreover, the TGI in experiment [1] was 6.05 µM; in experiment [2], 6.09 µM; in [3] it was 2.88 µM; in experiment [4], 3.62 µM; in [5], 3.42 µM; in experiment [6] it was 7.84 µM. Besides, the TGI in [7] was determined as 5.16 µM; in [8], 3.59 µM; in experiment [9], 6.16 µM; in experiment [10], 12.6 µM.

Take `CC(=O)[C@H]1CCC/C=C/[C@@H]2C[C@H](O)C[C@H]2[C@H](O)/C=C/C(=O)O1`: the GI50 in experiment [1] was 0.398 µM; in [2], 0.579 µM; in experiment [3], 0.193 µM; in experiment [4], 1.17 µM; in experiment [5] it was 0.332 µM; in experiment [6] it was 0.434 µM. Further, the GI50 was 2.44 µM in [7], 0.982 µM in experiment [8], 1.64 µM in experiment [9] and 0.976 µM in experiment [10]. Further, the TGI in experiment [1] is 3.17 µM; in [2], greater than 100 µM; in experiment [3], 0.392 µM; in [4], greater than 100 µM; in experiment [6], greater than 22.2 µM; in experiment [7], greater than 100 µM. Besides, the values for the TGI in experiment [8], in [9] and in [10] were greater than 100 µM, greater than 100 µM and 2.28 µM, respectively.

For `CSc1nc2c(c(=O)n1C)CN(C1CCCCC1)C(=O)C(c1ccccc1)N2` (configuration not stated), the GI50 was 31.4 µM in experiment [1]; 4 µM in experiment [2]; 68.3 µM in experiment [3]; 38.4 µM in experiment [4]; 38.2 µM in experiment [5]; 35.2 µM in experiment [6]. Further, the GI50 in experiment [7] was 15.9 µM; in [8] it was 46.9 µM; in [9], 36.7 µM; in [10] it was 77.3 µM. The TGI in experiment [1], in experiment [2], in [3], in experiment [4], in experiment [5] and in [6] was greater than 100 µM throughout. Moreover, the TGI is 80.7 µM in experiment [7], greater than 100 µM in [8], greater than 100 µM in [9] and greater than 100 µM in experiment [10].
